Tested on: cultured human skin fibroblasts
Test: [^3H]-Proline Incorporation Assay (collagen biosynthesis)
Format: cell-based
Settings: fibroblasts incubated with 11.3, 22.5 and 45 µg/ml for 48 hours; radioactive counts of newly synthesized [^3H]-hydroxyproline; numbers only in a chart image
Description: An art-recognized [^3H]-Proline Incorporation Assay was performed with different doses of 3'-(L-ascorbyl-2-phosphoryl)-cholesterol. Juva, Anal. Biochem., Vol. 15, pages 77-83 (1966); Booth, Biochim. Biophys. Acta, Vol. 675, pages 117-122 (1981).
Fibroblasts were incubated with 0 µg/ml, 11.3 µg/ml, 22.5 µg/ml and 45 µg/ml of 3'-(L-ascorbyl-2-phosphoryl)-cholesterol for a total of 48 hours. After the first 24 hours [^3H]-labeled proline was added to the culture. Following the second 24 hour period the cells were harvested and prepared for the collagen biosynthesis assay.
Protease inhibitors were added to prevent degradation of collagen and other proteins. The cell layer was scraped into a solution containing 0.4 M NaCl and 0.01 M Tris (pH 7.5). Extracts were sonicated to disrupt cell membranes. Separate volumes of the cell-containing solution (1 ml each) were dialyzed overnight against several changes of deionised water. The retentate was removed from dialysis and hydrolyzed in 6 N hydrochloric acid at 120°C overnight. The assay was performed using an oxidation process with 2 M chloramine-T. Samples were analyzed for radioactive counts, which represent the amount of newly synthesized [^3H]-hydroxyproline -- an index for new collagen synthesis.

**Q.** `CC(C)CCC[C@@H](C)[C@H]1CC[C@H]2[C@@H]3CC=C4C[C@@H](OP(=O)(O)OC5=C(O)[C@@H]([C@@H](O)CO)OC5=O)CC[C@]4(C)[C@H]3CC[C@]12C` [3'-(L-ascorbyl-2-phosphoryl)-cholesterol] was tested. Which “production of new collagen” value did it give?
**A.** increased production of new collagen by human skin fibroblasts in a dose-dependent manner
